The target of test [1] is T1, full length tyrosine phosphatase PTP1B (Homo sapiens, UniProt P18031).
T1 construct: purchased
T1 sequence (P18031 1-435): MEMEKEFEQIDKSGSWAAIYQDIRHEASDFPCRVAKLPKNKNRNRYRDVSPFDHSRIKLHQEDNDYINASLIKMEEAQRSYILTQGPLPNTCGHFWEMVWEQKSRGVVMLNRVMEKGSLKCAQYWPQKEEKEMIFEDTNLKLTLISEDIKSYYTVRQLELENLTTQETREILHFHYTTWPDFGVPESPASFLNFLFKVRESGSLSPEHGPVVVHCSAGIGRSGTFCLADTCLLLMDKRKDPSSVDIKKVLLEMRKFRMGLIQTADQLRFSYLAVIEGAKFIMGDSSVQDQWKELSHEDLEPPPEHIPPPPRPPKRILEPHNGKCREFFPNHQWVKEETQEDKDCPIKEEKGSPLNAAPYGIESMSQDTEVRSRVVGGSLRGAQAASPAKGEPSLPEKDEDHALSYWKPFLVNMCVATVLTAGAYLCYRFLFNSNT
Kind of test: Inhibition of PTP1B (pNPP hydrolysis, absorbance at 405 nm). The following applies: 5 μM aminosteroid analogue; pNPP substrate; read-out: PTP1B % Inhib. at (5 μM). The test is classed as biochemical. How it is done:
(§1) The aminosteroid analogues were tested for inhibition against the commercially available full length tyrosine phosphatase PTP1B. The ability of each analogue to inhibit the activity of PTP1B was measured in the presence of 5 μM of the aminosteroid analogue. The assay uses para-nitro-phenyl phosphate (pNPP), a non-specific substrate to assess phosphatase activity. Phosphatase activity was based on the ability of PTP1B to catalyze the hydrolysis of pNPP to p-nitrophenol (pNP).

Another test concerns the target T2, full length TCPTP (Homo sapiens, UniProt P17706).
T2 construct: except full length TCPTP was used as the enzyme
T2 sequence (P17706 1-415): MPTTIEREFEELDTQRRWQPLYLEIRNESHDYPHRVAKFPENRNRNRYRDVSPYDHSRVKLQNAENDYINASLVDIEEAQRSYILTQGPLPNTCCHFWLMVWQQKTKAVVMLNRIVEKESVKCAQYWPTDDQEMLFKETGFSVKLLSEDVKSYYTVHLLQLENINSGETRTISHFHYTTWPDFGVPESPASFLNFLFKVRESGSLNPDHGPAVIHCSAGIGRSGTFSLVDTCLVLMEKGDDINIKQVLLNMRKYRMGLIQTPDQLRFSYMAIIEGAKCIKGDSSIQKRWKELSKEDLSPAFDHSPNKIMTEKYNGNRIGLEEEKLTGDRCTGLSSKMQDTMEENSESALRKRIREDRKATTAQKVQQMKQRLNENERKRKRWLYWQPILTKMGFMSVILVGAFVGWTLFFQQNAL
As to the kind of experiment: Inhibition of TCPTP (pNPP hydrolysis, same manner as PTP1B assay). The test is classed as biochemical. The following applies: 200 μM inhibitor; pNPP substrate; read-out: TCPTP % Inhib. at (200 μM). On the procedure:
as §1
The aminosteroid analogues were also tested for their ability to inhibit the tyrosine phosphatase TCPTP as an indication of their potential toxicity by the inhibition of the immune response. The TCPTP inhibition assay was done in the same manner as the PTP1B assay except full length TCPTP was used as the enzyme and the inhibitor was at a concentration of 200 μM. The results of the TCPTP inhibition assays are shown in Table 1, column 4 and show three compounds that inhibit TCPTP less than 50% even at a […] greater concentration.

Test [2] concerns ob/ob (Lep^ob) mouse. Kind of test: Oral glucose tolerance test (OGTT) in ob/ob mouse. The test is classed as in vivo. The following applies: ob/ob mice; for change in vivo: Mus musculus, 336 h, 5 or 10 mg/kg ip every 3 days, 4 doses, OGTT study day 14, 1.5 g/kg oral glucose, 0-120 min, read-out: AbAUC % Change From Saline; for reduction in AbAUC compared to saline control (significance): OGTT study day 14, p<0.05. On the procedure:
(§2) To determine in vivo efficacy of the aminosteroid analogues an ob/ob (Lep^ob) mouse model was used. Ob/ob mice are extensively used for screening of antidiabetic and/or anti-obesity agents. Ob/ob mice were treated with either saline or 5 or 10 mg/kg aminosteroid analogue every 3 days for a total of 4 doses via ip injection. Body weight, glucose tolerance and fasting blood glucose levels were measured for each group during the study. Each group had at least an N of 4 animals. All reagents and lab animals are commercially available.
On study day 14, an oral glucose tolerance test (OGTT) was performed to assess glucose tolerance. At time 0, an oral glucose challenge (1.5 g/kg) was administered by oral gavage. At time points 0, 15, 30, 60, 90, and 120 min post glucose load, 25 μl of whole blood was withdrawn from the tail vein of the animal and the glucose level was measured using a glucose analyzer. The glucose concentration vs time was plotted and the above baseline area under the curve (AbAUC) of the glucose excursion time curve was determined using trapezoidal rule analyses.

Test [3] relates to ob/ob (Lep^ob) mouse. As to the kind of experiment: Fasting blood glucose (FBG) in ob/ob mouse. The test is classed as in vivo. The following applies: ob/ob mice; 5 or 10 mg/kg ip every 3 days, 4 doses; study day 14 after overnight fast. On the procedure:
as §2
On study day 13, all animal groups were fasted overnight. On study day 14, 25 μL of whole blood was collected and analyzed for the glucose level (mg/dL) using a glucose analyzer.

Test [4] can be described thus: Body weight change in ob/ob mouse. The test is classed as in vivo. Particulars: ob/ob mice; 5 or 10 mg/kg ip every 3 days, 4 doses; % change in body weight vs study day 0, up to 30 days. How it is done: as §2
Starting at study day 0, body weight measurements were taken every day for each group for up to 30 days. Percent change in body weight was calculated as the fractional response of body weight on study day X over the original body weight on study day 0.

For `COC(=O)CC[C@@H](C)[C@H]1CCC2C3C(CC[C@@]21C)[C@@]1(C)CC[C@H](NCCCCNCc2cccnc2)C[C@@H]1C[C@H]3O` (stereo partly shown) [MSI-2511], the inhibition at 5 µM in test [1] is 93%. Besides, the inhibition at 200 µM at full length TCPTP was 0%. Moreover, in the test on ob/ob (Lep^ob) mouse [2], the change in vivo is -34.6% and the “reduction in AbAUC compared to saline control (significance)” value (“reduction in AbAUC … (significance)” below) is listed as “significant reduction”. Also, the “FBG % Change From Saline” value in the test on ob/ob (Lep^ob) mouse [3] was 5.1%. For the same compound, in test [4], the “% BW Nader” value is on record as −0.9%.

Consider `COC(=O)CC[C@@H](C)[C@H]1CCC2C3CC[C@@H]4C[C@H](NCc5ccccn5)CC[C@]4(C)C3C[C@H](O)[C@@]21C` (stereo partly shown) [MSI-2512], for which, in test [1], the inhibition at 5 µM is 90%. Also, on full length TCPTP, the inhibition at 200 µM is -2%. In addition, in the test on ob/ob (Lep^ob) mouse [2], the change in vivo was -5.8%. In addition, in the test with ob/ob (Lep^ob) mouse [3], the “FBG % Change From Saline” value came out at 45.8%. Also, the “% BW Nader” value in test [4] worked out at 0.4%.

With `COC(=O)CC[C@@H](C)[C@H]1CCC2C3C[C@@H](O)[C@H]4C[C@H](NCCNC(C)C)CC[C@]4(C)C3CC[C@@]21C` (stereo partly shown) [MSI-2514], the inhibition at 5 µM in test [1] is 96%. The inhibition at 200 µM at full length TCPTP turned out to be 30%. In addition, the change in vivo in the test with ob/ob (Lep^ob) mouse [2] was -11.6%. In addition, in the test on ob/ob (Lep^ob) mouse [3], the “FBG % Change From Saline” value is recorded as 9.2%. Moreover, the “% BW Nader” value in test [4] is reported as −1.5%.

With `COC(=O)CC[C@@H](C)[C@H]1CCC2C3C(CC[C@@]21C)[C@@]1(C)CC[C@H](NCCNC(C)C)C[C@H]1C[C@H]3O` (stereo partly shown) [MSI-2520], in test [1], the inhibition at 5 µM was 103%. Moreover, at full length TCPTP, the inhibition at 200 µM is 19%. Moreover, in the test on ob/ob (Lep^ob) mouse [2], the change in vivo is -30.1% and the “reduction in AbAUC … (significance)” value is listed as “significant reduction”. The “FBG % Change From Saline” value in the test with ob/ob (Lep^ob) mouse [3] came to 34.7%. Besides, the “% BW Nader” value in test [4] was 0.5%.

Turning to `COC(=O)CC[C@@H](C)[C@H]1CCC2C3C(CC[C@@]21C)[C@@]1(C)CCC(NCCNC(C)C)C[C@@H]1C[C@H]3NS(C)(=O)=O` (stereo partly shown) [MSI-2527], the inhibition at 5 µM in test [1] worked out at 102%. For the same compound, the inhibition at 200 µM at full length TCPTP is 15%. For the same compound, in the test with ob/ob (Lep^ob) mouse [2], the change in vivo is -33% and the “reduction in AbAUC … (significance)” value is reported as “significant reduction”. Besides, the “FBG % Change From Saline” value in the test on ob/ob (Lep^ob) mouse [3] worked out at 32.2%. Besides, the “% BW Nader” value in test [4] was determined as 0.0%.

For the compound `COC(=O)CC[C@@H](C)[C@H]1CCC2C3C(CC[C@@]21C)[C@@]1(C)CC[C@H](NCCNC(C)C)C[C@@H]1C[C@H]3NC(C)=O` (stereo partly shown) [MSI-2532], the inhibition at 5 µM in test [1] worked out at 53%. The inhibition at 200 µM on full length TCPTP amounted to 4%. In the test on ob/ob (Lep^ob) mouse [2], the change in vivo was -56.6% and the “reduction in AbAUC … (significance)” value is listed as “significant reduction”. Further, the “FBG % Change From Saline” value in the test with ob/ob (Lep^ob) mouse [3] is listed as −0.7%. Besides, in test [4], the “% BW Nader” value is recorded as −0.8%.

The values above are taken from patent publication US9546194B2, “Aminosteroids for the treatment of a PTP1B associated disease” (Ohr Pharmaceutical Inc., priority 2012, dated 2017).
